Results taken from article PMC6767236, “Selective Cannabinoid 2 Receptor Agonists as Potential Therapeutic Drugs for the Treatment of Endotoxin-Induced Uveitis” (Molecules, 2019).
Entries after “also recorded” stand apart in the source; their conditions may differ. Like-named read-outs stand apart in the source and are kept apart here. Marks after values point to notes of the source that are not given here.

Key:
human CB1R [1] = molecular target: T1, human CB1R (Homo sapiens, UniProt P21554)
T1 construct: host or cells: CHO

[2] = Description: The GSH adduct formation test aims for the identification of molecules which bear the risk of forming reactive metabolites that might trigger drug-induced liver injury and drug-induced hypersensitivity reactions in patients. The compounds are incubated with liver microsomes to assess reactive metabolite formation. Glutathione is added as a nucleophile to convert eventually formed reactive species into a stable conjugate that can be analyzed by mass spectrometry. Details on the assay have been reported in Brink et al. (2014). […]
human CB2R [3] = molecular target: T2, human CB2R (Homo sapiens, UniProt P34972); conditions: cited from earlier work; for EC50: read-out: hCB2R: beta arrestin EC50
T2 construct: bgal (beta-galactosidase fragment of the PathHunter system, named only in the cell line's name); host or cells: CHO-K1 (CHOK1hCB2_bgal)

mouse CB2R = mouse CB2R (Mus musculus, UniProt P47936); test: cAMP assay, mouse CB2R (mouse spleen homogenate); format: biochemical
Description: The effect of ligands on the forskolin-stimulated accumulation of cAMP was determined using the LANCE ULTRA cAMP kit as per the manufacturer’s instruction (Perkin-Elmer Life Sciences, Boston, MA, USA).
For mouse CB2R cAMP assays, mouse spleen was resuspended in 50 mM of Tris-HCl (pH 7.4), then homogenized with a Potter homogenizer and centrifuged at 1000× g for 10 min. The supernatants were incubated for 30 min with 1-methyl-3-isobutylxanthine (IBMX), then forskolin was added in the presence or absence of ligands. The supernatants were incubated for 30 min in ATP Regeneration Buffer (50 mM HEPES, pH 7.4, 10 mM phosphocreatine, 10 units/mL creatine phosphokinase, 10 μM GTP, 200 μM ATP, 10 mM MgCl2, 250 μM IBMX), and the reaction was stopped by adding lysis buffer. Time-resolved fluorescence was measured with a Victor V Multilabel counter (Perkin-Elmer Life Sciences, Boston, MA, USA).

[4] = set-up: method as in earlier work; conditions: mouse, i.v., 0.5-1 mg/kg; * previously published; cited from earlier work
human CB1R [5] = molecular target: T1, human CB1R; remark: listed apart in the source
[6] = human and mouse liver microsomes; underlying data previously published; cited from earlier work
human CB2R [7] = molecular target: T2, human CB2R; conditions: cited from earlier work; for EC50: read-out: hCB2R: cAMP EC50; for hCB1R cAMP EC50/hCB2R cAMP EC50: functional selectivity
[8] = * previously published; cited from earlier work
[9] = test system: leukocyte-endothelial interactions in the iridial microcirculation; test: Endotoxin-induced uveitis (EIU), intravital microscopy of iridial microcirculation, WT mice; format: in vivo, BALB/c mice; conditions: for Rolling leukocytes per min: LPS + topical 1.5% w/v, mean ± SD, n = 6; for adherent leukocytes in the iridial microcirculation: WT mice
Description: EIU was induced in BALB/c mice using an intravitreal injection of LPS (2 μL; 125 ng/μL; E. coli 0111:B4 L084M4118V; Sigma-Aldrich, Oakville, ON, Canada) in saline,. Animals were anesthetized with isoflurane (4% induction, 2% maintenance), and were injected intravitreally through the pars plana with sterile saline (control) or LPS solution using a 30G needle and Hamilton syringe (Hamilton Company, Reno, NV, USA) with the assistance of a WILD M37 dissecting microscope (Leitz Canada, Kitchener, ON, Canada). The puncture wound was glued shut with 3M Vetbond Tissue Adhesive (3M Animal Products, St. Paul, MN, USA), and animals were allowed to recover.
IVM was conducted as previously described in Toguri et al. (2014). The iridial microcirculation was imaged 6 h after induction of EIU. Animals were anesthetized with pentobarbital (i.p., 54 mg/kg). Fifteen minutes before initiating IVM, 0.05% Rhodamine 6G (1.5 mL/kg; Sigma-Aldrich) was injected intravenously (i.v.) to visualize leukocytes within the vasculature, while 5% fluorescein isothiocyanate (FITC) conjugated albumin (i.v., 1 mL/kg; Sigma-Aldrich) was used to visualize blood flow. The iridial microcirculation was observed using an Olympus OV100 Small Animal Imaging System (Olympus, Tokyo, Japan), which contains an MT-20 light source, fluorescence excitation from a xenon lamp (150 W) and an excitation filter for rhodamine-6G (excitation 515–560 nm, emission 590 nm). Images were captured in real-time by a black and white DP70 CCD C-mount camera and digitally recorded using HCImage software (Hamamatsu, Herrsching, Germany).
During IVM animals were placed on a heating pad in a stereotactic frame, and Tear-Gel® (Novartis Pharmaceuticals Canada Inc., Dorval, QC, Canada) was applied to their cornea. The iris was divided into four equal quadrants by drawing two superficial lines on the cornea, lengthwise and widthwise. IVM was carried out in each of these quadrants. Two to four videos of each quadrant were recorded for 30 s each. Videos were analyzed off-line without knowledge of the treatment groups. […] Using ImageJ software (National Institute of Health, Bethesda, MD, USA) the number of adherent leukocytes within each vessel segment was calculated by measuring the diameter and length of vessel segment studied, assuming a cylindrical geometry of blood vessels. Adherent leukocytes were expressed as number of cells per mm^2 of endothelial surface. Rolling leukocytes were classified as cells that moved along the endothelium and crossed a predetermined cross-sectional line of the venule. The number of rolling leukocytes was counted for 30 s and used to calculate the number of rolling leukocytes per min. IVM was conducted 6 h after induction of EIU.
RO6871304, RO6871085, or RO6851228 were applied topically on the left eye (1.5% w/v; 5 μL/animal)) directly after injection of LPS in the same eye. Control animals received vehicle (Tocrisolve) (5 μL/animal) only. HU910 was dissolved for i.v. administration in mixed micelles.

[10] = phosphate buffer pH 6.5; * previously published; cited from earlier work
human CB1R [11] = molecular target: T1, human CB1R; remark: listed apart in the source
[12] = [3H]-CP55940 displacement; * previously published; read-out: hCB1R: Ki; cited from earlier work
[13] = underlying data previously published
[14] = read-out: mouse CB2R: cAMP EC50
[15] = * previously published; read-out: hCB1R: cAMP EC50; cited from earlier work
[16] = relative to 1 µM CP55940, * previously published
[17] = topical 1.5% w/v (5 µL/animal), 6 h after intravitreal LPS, vs LPS + vehicle
[18] = * previously published; read-out: hCB1R: beta arrestin EC50; cited from earlier work

mouse CB2R, sequence (P47936 whole entry): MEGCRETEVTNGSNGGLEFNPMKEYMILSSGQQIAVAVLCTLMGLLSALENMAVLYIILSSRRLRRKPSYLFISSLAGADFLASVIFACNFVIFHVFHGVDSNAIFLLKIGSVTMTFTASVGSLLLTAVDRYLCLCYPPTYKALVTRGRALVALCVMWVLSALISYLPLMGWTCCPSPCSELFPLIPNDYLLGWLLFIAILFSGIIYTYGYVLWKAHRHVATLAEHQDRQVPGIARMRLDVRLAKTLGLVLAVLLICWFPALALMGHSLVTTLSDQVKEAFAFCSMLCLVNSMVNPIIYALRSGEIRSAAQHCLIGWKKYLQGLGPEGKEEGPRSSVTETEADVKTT
T2 sequence (P34972 whole entry, the tested form may be a part): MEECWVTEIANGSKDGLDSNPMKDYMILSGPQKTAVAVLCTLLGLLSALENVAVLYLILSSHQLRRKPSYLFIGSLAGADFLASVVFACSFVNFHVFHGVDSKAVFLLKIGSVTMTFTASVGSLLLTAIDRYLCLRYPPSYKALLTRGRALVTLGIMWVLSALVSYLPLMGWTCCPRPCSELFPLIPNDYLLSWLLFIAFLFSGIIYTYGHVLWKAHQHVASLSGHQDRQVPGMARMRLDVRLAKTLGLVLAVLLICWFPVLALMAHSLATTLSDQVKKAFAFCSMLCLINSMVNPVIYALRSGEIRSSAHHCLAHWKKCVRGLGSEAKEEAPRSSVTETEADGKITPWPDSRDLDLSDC
T1 sequence (P21554 whole entry): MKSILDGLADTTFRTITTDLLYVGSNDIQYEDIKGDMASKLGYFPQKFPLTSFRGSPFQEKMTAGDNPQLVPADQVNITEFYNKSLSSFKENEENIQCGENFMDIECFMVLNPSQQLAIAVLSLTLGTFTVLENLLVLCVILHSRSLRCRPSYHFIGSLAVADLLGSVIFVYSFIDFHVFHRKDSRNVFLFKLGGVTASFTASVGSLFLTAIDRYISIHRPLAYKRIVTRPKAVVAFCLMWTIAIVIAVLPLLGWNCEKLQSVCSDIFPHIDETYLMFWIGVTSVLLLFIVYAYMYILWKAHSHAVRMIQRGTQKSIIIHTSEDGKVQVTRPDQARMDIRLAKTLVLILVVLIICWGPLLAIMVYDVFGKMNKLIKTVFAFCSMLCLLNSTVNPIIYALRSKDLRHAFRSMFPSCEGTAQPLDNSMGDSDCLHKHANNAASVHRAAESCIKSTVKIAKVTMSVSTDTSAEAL

Structure (SMILES) | Ki (human CB1R [1]; [12]) | GSH Adduct Formation in Human Liver Microsomes [2] | hCB2R: beta arrestin efficacy (human CB2R [3]; * previously published) | functional behaviour in hCB2R β-arrestin assay (human CB2R [3]; [13]) | mouse CB2R: cAMP efficacy (mouse CB2R) | EC50 (mouse CB2R; [14]) | Clearance (CL) [4] | Vss [4] | EC50 (human CB1R [5]; [15]) | clearance in human as well as mouse microsomes (class in words) [6] | EC50 (human CB2R [7]; * previously published) | hCB2R: cAMP efficacy (human CB2R [7]; [16]) | functional behaviour in hCB2R cAMP assay (human CB2R [7]; [13]) | LogD (at pH 7.4) [8] | Rolling leukocytes per min ([9]; 6 h after intravitreal LPS) | adherent leukocytes in the iridial microcirculation [9, 17] | Kinetic Solubility [10] | EC50 (human CB1R [11]; [18]) | AUCINF D [4] | T1/2 [4] | further results
CC(C)(C)c1nc(N2CC[C@H](O)C2)c2nnn(Cc3nnnn3C3CC3)c2n1 [RO6871304, (3S)-1-{5-tert-butyl-3-[(1-cyclopropyl-1H-tetrazol-5-yl)methyl]-3H-[1,2, 3]triazolo[4,5-d]pyrimidin-7-yl}pyrrolidin-3-ol] | > 10000 nM | no adduct | 119% | full agonist | 101% | 0.5 nM | 36.5 mL/min/kg | 0.95 L/kg | > 10000 nM | low to medium clearances | 1 nM | 102% | full agonists | 2.78 | 0.05 ± 0.07 per min | significantly attenuated; also recorded: most efficacious | 162 ± 2 µg/mL | – | – | – | EC50 (human CB2R [3]; * previously published): 21 nM
CCCCCCC(C)(C)c1cc(OC)c([C@H]2C=C(CO)[C@H]3C[C@@H]2C3(C)C)c(OC)c1 [HU308, {(1S,4S,5S)-4-[2,6-Dimethoxy-4-(2-methyloctan-2-yl)phenyl]-6,6-dimethylbicyclo[3.1.1]hept-2-en-2-yl}methanol, reference compound] | – | no adduct | 107% | full agonist | 99% | – | – | – | – | – | – | 98% | full agonists | – | – | – | < 0.75 µg/mL | – | – | – | Ki (human CB1R [1]; read-out: hCB1R: Ki; [3H]-CP55940 displacement; * previously published; cited from earlier work): 4600 nM; EC50 (human CB1R [11]; read-out: hCB1R: beta arrestin EC50; * previously published; cited from earlier work): > 10000 nM; EC50 (mouse CB2R): 6 nM; EC50 (human CB1R [5]; read-out: hCB1R: cAMP EC50; * previously published; cited from earlier work): > 10000 nM
CCCCCCC(C)(C)c1cc(OC)c(C2=C[C@H]3CC[C@]2(CO)C3(C)C)c(OC)c1 [HU910, {(1S,4R)-2-[2,6-dimethoxy-4-(2-methyloctan-2-yl)phenyl]-7,7-dimethylbicyclo[2.2.1]hept-2-en-1-yl}methanol, reference compound] | 3730 nM | no adduct | – | – | 99% | 3 nM | 2.8 mL/min/kg | 0.26 L/kg | > 10000 nM | – | – | – | – | – | – | significantly attenuated | < 0.5 µg/mL | > 30000 nM | 6060 ng·kg·h/mL/mg | 7.4 h | functional behaviour in hCB2R β-arrestin assay (human CB2R [3]): full agonist; hCB2R: beta arrestin efficacy (human CB2R [3]): 109, 81 * %; EC50 (human CB2R [3]): 109 nM; functional behaviour in hCB2R cAMP assay (human CB2R [7]): full agonists; hCB2R: cAMP efficacy (human CB2R [7]): 4, 98 * %; EC50 (human CB2R [7]): 4 nM; adherent leukocytes in the iridial microcirculation ([9]; 3.0 mg/kg i.v. in mixed micelles, 6 h after LPS, vs LPS + vehicle (p < 0.01)): significantly reduced leukocyte adhesion
Cc1nc([C@](C)(CC2CC2)NC(=O)c2cc(OCC(F)(F)F)c(C3CC3)cn2)no1 [RO6871085, 5-Cyclopropyl-N-[(2S)-1-cyclopropyl-2-(5-methyl-1,2,4-oxadiazol-3-yl)propan-2-yl]-4-(2,2,2-trifluoroethoxy)pyridine-2-carboxamide] | 3380 nM | no adduct | – | – | – | – | 11.8 mL/min/kg | 4.0 L/kg | 1450 nM | low to medium clearances | 8 nM | 88% | full agonists | 3.94 | – | significantly attenuated | – | > 30000 nM | 1412 ng·kg·h/mL/mg | 4.15 h | hCB1R: cAMP efficacy (human CB1R [5]; second number of the cell; relative to 1 µM CP55940; * previously published; cited from earlier work): 38%; hCB1R cAMP EC50/hCB2R cAMP EC50 (human CB2R [7]; * previously published): 174 *
CNC(=O)[C@@H](NC(=O)c1cc(OCC2(C)COC2)c(C2CC2)cn1)C(C)(C)C [RO6851228, 5-Cyclopropyl-N-[(2S)-3,3-dimethyl-1-(methylamino)-1-oxobutan-2-yl]-4-[(3-methyloxetan-3-yl)methoxy]pyridine-2-carboxamide] | 6490 nM | no adduct | – | – | – | – | 73.8 mL/min/kg | 3.1 L/kg | – | low to medium clearances | 26 nM | −159% | inverse agonist | 3.21 | 0.45 ± 0.47 per min | increased leukocyte-adhesion; also recorded: increases leukocyte adhesion | – | – | 226 ng·kg·h/mL/mg | 1.08 h | hCB2R cAMP EC50/mouse CB2R cAMP EC50 ratio (mouse CB2R): 7; hCB1R cAMP EC50/hCB2R cAMP EC50 (human CB2R [7]; * previously published): >383 *
